Tests used:
[1] = target: T1, human B1R receptor (hB1R) (Homo sapiens, UniProt P46663); assay: FLIPR Ca2+ assay (Fluo-4) on CHO K1 cells stably transfected with the human B1R gene; assay type: cell-based; settings: CHO-K1; test substance 10 μM; agonist Lys-Des-Arg9-bradykinin 0.5 nM; % inhibition compared to the maximum achievable inhibition
T1 construct: host or cells: CHO K1 cells
T1 sequence (P46663 1-353): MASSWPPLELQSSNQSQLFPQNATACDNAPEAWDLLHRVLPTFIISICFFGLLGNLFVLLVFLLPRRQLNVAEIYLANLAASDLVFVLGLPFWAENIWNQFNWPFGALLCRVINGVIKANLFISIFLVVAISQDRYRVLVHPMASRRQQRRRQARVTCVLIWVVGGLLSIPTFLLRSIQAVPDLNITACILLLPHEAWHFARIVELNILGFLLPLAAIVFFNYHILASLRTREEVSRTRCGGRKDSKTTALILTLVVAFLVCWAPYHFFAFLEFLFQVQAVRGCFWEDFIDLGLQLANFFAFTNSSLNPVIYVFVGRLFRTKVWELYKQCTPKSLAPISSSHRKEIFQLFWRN
Summary of the method: (§1)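 CHO K1 cells stably expressing human or rat B1R, Fluo-4 loaded, read by FLIPR (Ex 488/Em 540, peak fluorescence). Compound at 10 μM gives % activation vs agonist. After 10 min, agonist added (human: Lys-Des-Arg9-bradykinin 0.5 nM; rat: Des-Arg9-bradykinin 100 nM); % inhibition relative to maximal achievable inhibition.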

[2] = target: T2, B1R receptor of rats (rB1R) (Rattus norvegicus, UniProt P97583); assay: FLIPR Ca2+ assay (Fluo-4) on CHO K1 cells stably transfected with the B1R gene of rats; assay type: cell-based; settings: CHO-K1; test substance 10 μM; agonist Des-Arg9-bradykinin 100 nM; % inhibition compared to the maximum achievable inhibition
T2 construct: host or cells: CHO K1 cells
T2 sequence (P97583 1-337): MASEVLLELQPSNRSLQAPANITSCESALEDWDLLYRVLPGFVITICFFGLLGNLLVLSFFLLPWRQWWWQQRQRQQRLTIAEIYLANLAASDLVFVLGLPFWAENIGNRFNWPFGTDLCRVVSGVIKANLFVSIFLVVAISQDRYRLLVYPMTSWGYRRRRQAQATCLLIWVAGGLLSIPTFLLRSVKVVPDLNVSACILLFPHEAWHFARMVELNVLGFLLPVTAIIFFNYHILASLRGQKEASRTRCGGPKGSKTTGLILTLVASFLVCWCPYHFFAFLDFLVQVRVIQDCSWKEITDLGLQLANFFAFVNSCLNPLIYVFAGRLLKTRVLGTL
Summary of the method: as §1

| Structure (SMILES) | inhibition at 10 µM [1] [%] | inhibition at 10 µM [2] [%] |
| --- | --- | --- |
| Cc1cc(S(=O)(=O)N2CCCCC2CCC(=O)N2CCn3c(CN4CCN(C)CC4)ccc3C2)c(C)cc1Cl (stereo not shown) [(5), 3-(1-(4-chloro-2,5-dimethylphenylsulfonyl)piperidin-2-yl)-1-(6-((4-methyl-piperazin-1-yl)methyl)-3,4-dihydropyrrolo[1,2-a]pyrazin-2(1H)-yl)propan-1-one] | 100 | 51 |
| COc1cc(C)c(S(=O)(=O)N2CCCCC2COCC(=O)N2CCn3cccc3C2C(C)C)c(C)c1 (stereo not shown) [(72), 1-(1-isopropyl-3,4-dihydropyrrolo[1,2-a]pyrazin-2(1H)-yl)-2-((1-(4-methoxy-2,6-dimethylphenylsulfonyl)piperidin-2-yl)methoxy)ethanone] | 102 | 102 |
| CN1CCN(Cc2ccc3n2CCN(C(=O)COCC2CCc4ccccc4N2S(=O)(=O)c2ccc(Cl)c(Cl)c2)C3)CC1 (stereo not shown) [(11), 2-((1-(3,4-dichlorophenylsulfonyl)-1,2,3,4-tetrahydroquinolin-2-yl)methoxy)-1-(6-((4-methylpiperazin-1-yl)methyl)-3,4-dihydropyrrolo[1,2-a]pyrazin-2(1H)-yl)ethanone] | 100 | 56 |
| Cc1cc(C)c(S(=O)(=O)N2CCCCC2COCC(=O)N2CCn3cccc3C2c2ccc(C)c(C)c2)c(C)c1 (stereo not shown) [(41), 1-(1-(3,4-dimethylphenyl)-3,4-dihydropyrrolo[1,2-a]pyrazin-2(1H)-yl)-2-((1-(mesitylsulfonyl)piperidin-2-yl)methoxy)ethanone] | 35 | 98 |
| COc1cc(C)c(S(=O)(=O)N2CCCCC2COCC(=O)N2CCn3cccc3C2c2ccc(C)c(C)c2)c(C)c1 (stereo not shown) [(27), 1-(1-(3,4-dimethylphenyl)-3,4-dihydropyrrolo[1,2-a]pyrazin-2(1H)-yl)-2-((1-(4-methoxy-2,6-dimethylphenylsulfonyl)piperidin-2-yl)methoxy)ethanone] | 66 | 97 |
| Cc1cc(C)c(S(=O)(=O)N2CCCCC2COCC(=O)N2CCn3ccnc3C2)c(C)c1 (stereo not shown) [(37), 1-(5,6-dihydroimidazo[1,2-a]pyrazin-7(8H)-yl)-2-((1-(mesitylsulfonyl)piperidin-2-yl)methoxy)ethanone] | 18 | 91 |
| CCC1c2cccn2CCN1C(=O)COC[C@@H]1CCCCN1S(=O)(=O)c1c(C)cc(OC)cc1C (stereo partly drawn) [(86), 1-(1-ethyl-3,4-dihydropyrrolo[1,2-a]pyrazin-2(1H)-yl)-2-(((S)-1-(4-methoxy-2,6-dimethylphenylsulfonyl)piperidin-2-yl)methoxy)ethanone] | 99 | 99 |
| COc1cc(C)c(S(=O)(=O)N2CCCCC2CCCC(=O)N2CCn3c(Cc4cccnc4)ccc3C2)c(C)c1 (stereo not shown) [(105), 4-(1-(4-Methoxy-2,6-dimethylphenylsulfonyl)piperidin-2-yl)-1-(6-(pyridin-3-ylmethyl)-3,4-dihydropyrrolo[1,2-a]pyrazin-2(1H)-yl)butan-1-one] | 64 | 103 |
| COc1cc(C)c(S(=O)(=O)N2CCCCC2CCCC(=O)N2CCn3cc(Cc4ccncc4)nc3C2)c(C)c1 (stereo not shown) [(119), 4-(1-(4-Methoxy-2,6-dimethylphenylsulfonyl)piperidin-2-yl)-1-(2-(pyridin-4-ylmethyl)-5,6-dihydroimidazo[1,2-a]pyrazin-7(8H)-yl)butan-1-one] | 90 | 107 |
| Cc1cc(C)c(S(=O)(=O)N2CCCCC2COCC(=O)N2CCn3c(C)ccc3C2C(C)C)c(C)c1 (stereo not shown) [(59), 1-(1-isopropyl-6-methyl-3,4-dihydropyrrolo[1,2-a]pyrazin-2(1H)-yl)-2-((1-(mesitylsulfonyl)piperidin-2-yl)methoxy)ethanone] | 85 | 103 |
| COc1cc(C)c(S(=O)(=O)N2CCCCC2COCC(=O)N2CCn3c(CN4CCOCC4)ccc3C2)c(C)c1 (stereo not shown) [(6), 2-((1-(4-methoxy-2,6-dimethylphenylsulfonyl)piperidin-2-yl)methoxy)-1-(6-(morpholinomethyl)-3,4-dihydropyrrolo[1,2-a]pyrazin-2(1H)-yl)ethanone] | 100 | 101 |
| COc1cc(C)c(S(=O)(=O)N2CCCCC2COCC(=O)N2CCn3cnnc3C2)c(C)c1 (stereo not shown) [(1), 1-(5,6-dihydro-[1,2,4]triazolo[4,3-a]pyrazin-7(8H)-yl)-2-((1-(4-methoxy-2,6-dimethylphenylsulfonyl)piperidin-2-yl)methoxy)ethanone] | 56 | 100 |
| COc1cc(C)c(S(=O)(=O)N2CCCCC2CCCC(=O)N2CCn3c(ccc3-c3cccnc3)C2)c(C)c1 (stereo not shown) [(92), 4-(1-(4-Methoxy-2,6-dimethylphenylsulfonyl)piperidin-2-yl)-1-(6-(pyridin-3-yl)-3,4-dihydropyrrolo[1,2-a]pyrazin-2(1H)-yl)butan-1-one] | 91 | 99 |
| Cc1cc(C)c(S(=O)(=O)N2CCCCC2COCC(=O)N2CCn3c(CN(C)C)ccc3C2CCc2ccccc2)c(C)c1 (stereo not shown) [(51), 1-(6-((dimethylamino)methyl)-1-phenethyl-3,4-dihydropyrrolo[1,2-a]pyrazin-2(1H)-yl)-2-((1-(mesitylsulfonyl)piperidin-2-yl)methoxy)ethanone] | 101 | 101 |
| COc1cc(C)c(S(=O)(=O)N2CCCCC2CCCC(=O)N2CCn3c(CCc4cccnc4)ccc3C2)c(C)c1 (stereo not shown) [(103), 4-(1-(4-Methoxy-2,6-dimethylphenylsulfonyl)piperidin-2-yl)-1-(6-(2-(pyridin-3-yl)ethyl)-3,4-dihydropyrrolo[1,2-a]pyrazin-2(1H)-yl)butan-1-one] | 95 | 100 |
| COc1cc(C)c(S(=O)(=O)N2CCCCC2COCC(=O)N2CCn3cccc3C2C(C)(C)C)c(C)c1 (stereo not shown) [(19), 1-(1-tert-butyl-3,4-dihydropyrrolo[1,2-a]pyrazin-2(1H)-yl)-2-((1-(4-methoxy-2,6-dimethyl-phenylsulfonyl)piperidin-2-yl)methoxy)ethanone] | 102 | 96 |
| COc1cc(C)c(S(=O)(=O)N2CCCCC2CCC(=O)N2CCn3c(ccc3-c3ccncc3)C2)c(C)c1 (stereo not shown) [(96), 3-(1-(4-Methoxy-2,6-dimethylphenylsulfonyl)piperidin-2-yl)-1-(6-(pyridin-4-yl)-3,4-dihydropyrrolo[1,2-a]pyrazin-2(1H)-yl)propan-1-one] | 61 | 96 |
| COc1cc(C)c(S(=O)(=O)N2CCCCC2COCC(=O)N2CCn3ncnc3C2)c(C)c1 (stereo not shown) [(73), 1-(5,6-dihydro-[1,2,4]triazolo[1,5-a]pyrazin-7(8H)-yl)-2-((1-(4-methoxy-2,6-dimethylphenylsulfonyl)piperidin-2-yl)methoxy)ethanone] | 36 | 102 |
| COc1cc(C)c(S(=O)(=O)N2CCCCC2CCC(=O)N2CCn3c(Cc4ccncc4)ccc3C2)c(C)c1 (stereo not shown) [(99), 3-(1-(4-Methoxy-2,6-dimethylphenylsulfonyl)piperidin-2-yl)-1-(6-(pyridin-4-ylmethyl)-3,4-dihydropyrrolo[1,2-a]pyrazin-2(1H)-yl)propan-1-one] | 72 | 102 |
| O=C(CC1CCCCN1S(=O)(=O)c1cccc(C(F)(F)F)c1)N1CCn2c(CCc3ccncc3)ccc2C1 (stereo not shown) [(107), 1-(6-(2-(Pyridin-4-yl)ethyl)-3,4-dihydropyrrolo[1,2-a]pyrazin-2(1H)-yl)-2-(1-(3-(trifluoromethyl)phenylsulfonyl)piperidin-2-yl)ethanone] | 26 | 75 |
| Cc1cc(C)c(S(=O)(=O)N2CCCCC2COCC(=O)N2CCn3cccc3C2c2ccc(F)c(F)c2)c(C)c1 (stereo not shown) [(40), 1-(1-(3,4-difluorophenyl)-3,4-dihydropyrrolo[1,2-a]pyrazin-2(1H)-yl)-2-((1-(mesitylsulfonyl)piperidin-2-yl)methoxy)ethanone] | 38 | 100 |
| COc1cc(C)c(S(=O)(=O)N2CCCCC2CCC(=O)N2CCn3cc(-c4ccncc4)nc3C2)c(C)c1 (stereo not shown) [(114), 3-(1-(4-Methoxy-2,6-dimethylphenylsulfonyl)piperidin-2-yl)-1-(2-(pyridin-4-yl)-5,6-dihydroimidazo[1,2-a]pyrazin-7(8H)-yl)propan-1-one] | 79 | 98 |
| CN1CCN(Cc2ccc3n2CCN(C(=O)CC2CCCCN2S(=O)(=O)c2cccc(C(F)(F)F)c2)C3)CC1 (stereo not shown) [(7), 1-(6-((4-methylpiperazin-1-yl)methyl)-3,4-dihydropyrrolo[1,2-a]pyrazin-2(1H)-yl)-2-(1-(3-(trifluoromethyl)phenylsulfonyl)piperidin-2-yl)ethanone] | 87 | 52 |

Source: US8178535B2, “Substituted sulfonamide compounds having bradykinin 1 receptor activity and use thereof as medicaments” (Gruenenthal GmbH, priority 2008, dated 2012)
